Literature values, collected in patent publication US12649947B2, “Method of treatment using genetic predictors of a response to treatment with CRHR1 antagonists” (HMNC Holding GmbH, priority 2015, dated 2026).

Tested on: mice overexpressing CRH in the forebrain

Q: For `COCC(COC)Nc1nc(C)nc2c(-c3ccc(Cl)cc3Cl)c(C)nn12` [DMP696], which “effect on REM sleep enhancement” value is on record?
A: The value was “could reverse the REM enhancement”.
